Experimental data as given in article PMC2033546, “Effects of somatostatin analogue RC-160 and bombesin/gastrin-releasing peptide antagonists on the growth of human small-cell and non-small-cell lung carcinomas in nude mice” (British Journal of Cancer, 1994).
Where no end group is shown, it is not given here. [ ]: non-standard residue; d: D form.

Tests used:
[1] = test system: non-SCLC cell line NCI-H157; experiment: Growth of H157 non-SCLC xenografts in nude mice; type: in vivo, human (xenograft in male athymic nude mice); conditions: RC-160 100 µg/day, RC-3095 20 µg/day
Source text: (§1) Br. J. Cancer (1994). 70, 886 892 ? Macmillan Press Ltd.. […] Bombesin GRP antagonists. […] Lung carcinoma is the leading cause of cancer-related deaths in the western world. It is estimated that in 1992 there were approximately 168,000 new cases of lung cancer in the US and that about 146,000 deaths occurred from this disease (Boring et al., 1992). […] The growth factors such as bombesin/gastrin-releasing pep- tide (GRP), epidermal growth factor, (EGF), transforming growth factor a (TGF-x) and insulin-like growth factor I(IGF-I) appear to play a role in the proliferation and pro- gression of lung cancer (Cuttitta et al., 1985; Veale et al., 1987; Minuto et al., 1988; Siegfried & Owens, 1988; Macaulay et al., 1990; Tateishi et al., 1991; Damstrup et al., 1992; Sethi & Rozengurt, 1992; Rabiasz et al., 1992; Moody & Cuttitta, 1993). […] Tpi is 2,3,4,9-tetrahydro- Correspondence: A.V. Schally (151). VA Medical Center, 1601 Per- dido Street. New Orleans, LA 70146. USA. Received 1 March 1994; and in revised form 5 July 1994. Br. J. Cancer (1994), 70, 886-892 C Macmillan Press Ltd., 1994 PEPTIDE ANALOGUES IN LUNG CANCER 8U7 lH-pyrido [3,4bjindol-3-carboxylic acid, a conformationally constrained secondary amine derivate of tryptophan and Tac is thiazolidine-4-carboxylic acid. […] Animals Male athymic NCr nulmu nude mice, approximately 6 weeks old on arrival, were obtained from the NCI (Bethesda, MD, USA) and maintained under pathogen-limited conditions. Cell lines The human SCLC cell line NCI-H69, was obtained from the American Type Cell Culture (ATCC), Rockville, MD, USA and the non-SCLC cell line NCI-H157, from Dr H. Oie, NCI-Navy Medical Oncology Branch, Bethesda, MD, USA. These cell lines were cultured in RPMI-1640 medium supple- mented with 4 mM L-glutamine, 50 units ml-I penicilln G sodium, SOigml-' streptomycin sulphate, 0.125pgml-' amphotericin B and 10% fetal bovine serum at 3TC in a humidified 95% air/5% carbon dioxide atmosphere. CeLs were passaged weekly and routinely monitored for myco- plasma contamination using a detection kit (Boehringer- Mannheim, Mannheim, Germany). All culture media com- ponents were purchased from Gibco (Grand Island, NY, USA). Receptor assays Preparation of membranes for receptor studies was described previously (Halmos et al., 1993). Iodinated EGF and IGF-I were purchased from Amersham (Arlington Heights, IL, USA). Radioiodination of other peptides and receptor bind- ing of EGF, IGF-I, somatostatin and bombesin/GRP were performed as previously described (Srkalovic et al., 1989; Szepeshazi et al., 1992). Complete displacement assays on tumour membranes were done only once because of the shortage of tumour material. The LIGAND PC computerised curve-fitting programme of Munson and Rodbard (1980) was used to determine the types of receptor binding, dissociation constant (Kd) values, and the maximal binding capacity (BDj) of receptors. In order to determine the specificity of the binding sites for radiolabelled EGF, IGF-I, somatostatin and bombesin to lung cancer membranes, various structuraly related and unrelated peptides were tested for their ability to inhibit the binding of the tracers. Histological procedure The histological procedures were the same as described previously (Szepeshazi et al., 1991, 1992). The number of mitotic and apoptotic cells per 1,000 cells was determined, and the percentage area of necrosis in tumour sections was examined using the point-counting method (Szepeshazi et al., 1991, 1992), in which the crossing points of an ocular net that coincide with necrosis in various sections are counted. Radiommunoassays Serum levels of growth hormone were determined by double- antibody radioimmunoassay (RIA) using materials supplied by the National Hormone and Pituitary Program of the National Institute of Diabetes and Digestive and Kidney Diseases (NIDDK).

[2] = test system: Somatostatin receptors in membranes of SCLC H69 tumours; experiment: Somatostatin receptor binding on H69 tumour membranes after in vivo treatment; set-up: species or system human
Source text: as §1, with “In order to determine the specificity of the binding sites for radiolabelled EGF, IGF-I, somatostatin and bombesin to lung cancer membranes, various structuraly related and unrelated peptides were tested for their ability to inhibit the binding of the tracers. Histological procedure The histological procedures were the same as described previously (Szepeshazi et al., 1991, 1992).” left out

[3] = test system: human SCLC cell line NCI-H69; experiment: Growth of H69 SCLC xenografts in nude mice; type: in vivo, human (xenograft in male athymic nude mice)
Source text: as §1

[4] = H69 SCLC xenografts, as compared with control group, RC-160 100 µg, RC-3950-II 20 µg per animal per day s.c. peritumorally, 5 weeks

With “[dF]CY[dW]KVCW-NH2 (cysteine pairing not given here) [RC-160, Somatostatin analogue RC-160]” the “Growth of H157 non-SCLC tumours (in words)” value ([1]; 4 weeks s.c., SB-75 100 µg/day per animal, vs control) was “significantly reduced”, the “Tumour volume, final” value ([1]; Table I, Experiment II (non-SCLC H157), 4 weeks s.c. peritumoral, SB-75 100 µg/day per animal, control 1580.3 ? 455.7, means ? s.d., ten animals per group, *P<0.05 vs control) was 291.0 207.8* (mm)r and the Tumour weight ([1]; Table I, Experiment II (non-SCLC H157), 4 weeks s.c., SB-75 100 µg/day, control 1.9 ? 0.3, means ? s.d., *P<0.05 vs control) was 0.64 0.3* g. For the same substance, the Tumour doubling time ([1]; Table I, Experiment II (non-SCLC H157), 4 weeks s.c., SB-75 100 µg/day, control 3.88) was 6.06 days, the “Somatostatin maximal binding capacity (Bmax)” value ([2]; Table IV, Experiment I (SCLC-H69), tumour membranes after in vivo treatment, control 450, done once) was 570 fmol mg-'protein and the “Binding capacity of receptors for somatostatin on H69 tumours (in words)” value ([2]; after in vivo treatment) was “increased the binding capacity of receptors for somatostatin”. For the same substance, the “Reduction in tumour volumes” value [3, 4] was “more than 70%”, the “Reduction in tumour weights” value [3, 4] was “more than 70%” and the “Time from which tumour growth was significantly inhibited” value ([3]; SCLC H69 tumours, P<0.01, from start of the experiment) was 14 days. For the same substance, the “Tumour volume, final” value ([3]; Table I, Experiment I (SCLC-H69), 5 weeks s.c. peritumoral, RC-160 100 µg/day, RC-3440, RC-3095, RC-3950-II 20 µg/day per animal, control 249.7 ? 182.3, means ? s.d., ten animals per group, *P<0.05 vs control) was 66.0 26.5* (mm)r, the Tumour weight ([3]; Table I, Experiment I (SCLC-H69), 5 weeks s.c. peritumoral, RC-160 100 µg/day, antagonists 20 µg/day per animal, control 0.27 ? 0.19, means ? s.d., *P<0.05 vs control) was 0.058 0.04* g and the Tumour doubling time ([3]; Table I, Experiment I (SCLC-H69), 5 weeks, RC-160 100 µg/day, antagonists 20 µg/day per animal s.c., control 7.5) was 12.7 days. The “Growth of H69 SCLC tumours (in words)” value ([3]; s.c. peritumorally, RC-160 100 µg, bombesin/GRP antagonists 20 µg per animal per day, 5 weeks) was “inhibited the growth of H69 SCLC xenografts”.
